Type in all cases: cell-based, human
Series [1] concerns HaCaT cells. The experiment in a line: CCK8 cell viability, concentration screening in HaCaT cells. To be noted: 1 h. On the procedure:
(§1) HaCaT cell recovery, culture, and subculture were performed with reference to the method described by Yusha Zi et al., with some modifications ([23]). For recovery, cryopreserved HaCaT cells were retrieved from liquid nitrogen storage and quickly thawed in a 37 °C water bath with gentle shaking. Just before complete thawing, the tube was removed from the water bath, and the cell suspension was immediately transferred into a 15 mL centrifuge tube containing 9 mL of pre-warmed complete medium. The complete medium consisted of DMEM supplemented with 10% fetal bovine serum (FBS) and 1% penicillin–streptomycin (P/S). Cells were centrifuged at 800 rpm for 5 min at 4 °C. After discarding the supernatant, the cell pellet was resuspended in 5 mL of fresh complete medium and transferred to a culture flask equipped with a ventilated cap. Cells were incubated in a humidified incubator at 37 °C with 5% CO₂ and 95% humidity.
For subculturing, when cell confluence reached approximately 80%, the medium was discarded, and the cells were gently rinsed three times with 2 mL of PBS. Then, 1 mL of 0.25% trypsin solution was added, and the flask was incubated at 37 °C for about 1 min. Once the cells became round and partially detached (as observed under a microscope), 3 mL of complete medium was added to terminate the digestion. The cell suspension was gently pipetted to disperse the cells and transferred to a 15 mL centrifuge tube. After centrifugation at 800 rpm for 5 min at 4 °C, the supernatant was discarded. The pellet was resuspended in fresh medium and seeded into new culture flasks at a ratio of 1:3, followed by incubation under the same culture conditions.
After digestion and resuspension, HaCaT cells were seeded into a 96-well plate at a concentration of 1 × 10^^4 cells/ml, with 100 μL of complete culture medium added to each well. Three wells with no cells were treated with an equal volume of complete culture medium as the blank group. The cells were incubated for 24 h to allow attachment. For the experiment, the control and blank groups were replaced with an equal volume of fresh medium, while the treatment groups were treated with a concentration gradient of 100, 200, 500, 1,000, and 1,500 μg/mL H2O2 and peptide samples. The H2O2 group was incubated for 1 h, while the peptide sample group was incubated for 24 h. After incubation, the original medium was discarded, and 100 μL of CCK8 working solution (prepared from 90% DMEM + 10% CCK8 reagent) was added to each well. The blank group, which contained no cells, was used as the reference. The plate was incubated for an appropriate period, and the absorbance at 450 nm was measured using a microplate reader. Cell viability was calculated using the following formula:
Cell viability(%)=100%×(ODsample−ODblank)/(ODcontrol−ODblank).

For series [2], the system named is HaCaT cells. To be noted: 500 μg/mL H2O2 1 h, no peptide; CCK8, 450 nm; p < 0.0001 vs control; mean ± SD, n = 3. On the procedure:
as §1, with “humidity. For subculturing, when cell confluence reached approximately 80%, the medium was discarded, and the cells were gently rinsed three times with 2 mL of PBS. […] The plate was incubated for an appropriate period, and the absorbance at 450 nm was measured using a microplate reader. Cell viability was calculated using the following formula: Cell viability(%)=100%×(ODsample−ODblank)/(ODcontrol−ODblank). […] The absorbance was measured and cell viability was calculated under the same conditions.” for “humidity.”

The test system of series [3] is HaCaT cells. Nature of the series: ROS quantification in H2O2-treated HaCaT cells (DCFH-DA). The note with it: 500 μg/mL H2O2 1 h, no peptide; DCFH-DA fluorescence 488/525 nm normalized per mg protein; p < 0.0001 vs control (541.25 ± 25.03 AU); mean ± SD, n = 3. On the procedure:
After digestion and resuspension, HaCaT cells were seeded into a 6-well plate at a concentration of 1 × 10^4 cells/ml, with 2 mL of culture medium added to each well. The cells were incubated for 24 h to allow attachment and adaptation. After 24 h, the cells were divided into treatment groups. The control and blank groups were replaced with an equal volume of normal culture medium, while the treatment group was incubated with a 1,000 μg/mL peptide solution for 24 h. After that, both the control and treatment groups were treated with 500 μg/mL H2O2 and incubated for an additional 1 h.
After incubation, the medium was discarded, and DCFH-DA probe was diluted in serum-free medium at a 1:1000 ratio. Then, 1.5 mL of the diluted solution was added to each well, and the cells were incubated at 37 °C in the dark for 20 min. The blank group was treated with an equal volume of serum-free medium. […] The fluorescence intensity was measured using a fluorescence spectrophotometer with an excitation wavelength of 488 nm and an emission wavelength of 525 nm. The total protein concentration of each sample was determined using the BCA method. The fluorescence value was then normalized to the fluorescence intensity per milligram of protein, and the results were statistically analyzed.

With `OO` [H₂O₂, hydrogen peroxide], the “effect on HaCaT cell viability at 200 μg/mL H2O2” value with HaCaT cells [1] (H2O2 200 μg/mL, CCK8, vs control, p < 0.01) is “A significant reduction”. For the same molecule, the “HaCaT cell viability after 500 μg/mL H2O2 (screening)” value in the series on HaCaT cells [1] (H2O2 500 μg/mL, CCK8, 450 nm, mean ± SD, n = 3) came to 49.05 ± 4.24%. Also, in the series on HaCaT cells [1] (H2O2 1500 μg/mL, CCK8, 450 nm), the “dead HaCaT cells at 1500 μg/mL H2O2” value is “over 90%”. The “HaCaT cell viability, H2O2 alone” value with HaCaT cells [2] came to 47.82 ± 1.87%. Further, the “ROS level, H2O2 alone” value in the series with HaCaT cells [3] worked out at 2128.33 ± 127.37 AU.

The values are drawn from publication PMC12583094, “A novel antioxidant peptide from black soybean [Glycine max (L.) Merr.] with verified MPO interaction and multi-scale antioxidant activity” (Frontiers in Nutrition, 2025).
